From US9919060B2 (University Court of the University of Dundee, priority 2009, dated 2018)
“Also recorded” adds a separate entry of the source.

Experiments:
CYP1A2 = target: T1, CYP1A2 (Homo sapiens, UniProt P05177); assay: Fragmentation of benzofuran ether and carbamate linked coumarins by Supersomal CYP1A2 (coumarin anion release, kinetic fluorimetry); format: biochemical; details: 10 pmol enzyme, 10 μmol dm^−3 prodrug, NADPH, pH 7.4, 37° C., mean ± standard deviation of three measurements
T1 construct: purchased BD Gentest, Oxford, UK
T1 sequence (P05177 2-516 limits assumed): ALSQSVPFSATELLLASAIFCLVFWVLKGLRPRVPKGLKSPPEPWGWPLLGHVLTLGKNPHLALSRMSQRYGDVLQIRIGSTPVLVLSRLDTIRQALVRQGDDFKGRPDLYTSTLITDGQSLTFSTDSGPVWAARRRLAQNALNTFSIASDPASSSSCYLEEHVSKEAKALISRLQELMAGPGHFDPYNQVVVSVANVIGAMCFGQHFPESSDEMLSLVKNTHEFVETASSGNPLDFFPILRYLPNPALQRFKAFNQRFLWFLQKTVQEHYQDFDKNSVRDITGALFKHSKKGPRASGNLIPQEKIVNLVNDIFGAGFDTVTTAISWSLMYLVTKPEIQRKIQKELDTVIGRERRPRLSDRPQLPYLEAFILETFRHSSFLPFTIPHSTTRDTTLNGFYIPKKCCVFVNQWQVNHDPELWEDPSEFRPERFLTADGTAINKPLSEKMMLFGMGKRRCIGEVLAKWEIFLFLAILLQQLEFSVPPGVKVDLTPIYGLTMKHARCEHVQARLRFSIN
Protocol: (§1) Supersomal™ enzyme metabolism was started by adding a stock solution of prodrug dissolved in DMSO to give a final concentration of 10 μmol dm^−3 prodrug and 0.5% DMSO. HLM screening used 60 microliter microsomes, 100 μmol dm^−3 NADPH, in 10 mmol dm^−3 potassium phosphate buffer at pH 7.4 and 37 OC, in 1.5 ml total reaction volume.
(§2) Therefore, enzymatic hydroxylation of the hetero-aromatic trigger and resultant linker fragmentation can be monitored in real time by release of the coumarin anion by kinetic fluorimetry.
(§3) Release of the coumarin anion indicative of linker fragmentation was monitored using a 1 cm path length fluorescence cell in a Cary Eclipse kinetic flourimeter with excitation and emission slits set at 5 nm. Coumarin anion release from compounds of the invention was detected at the excitation wavelength λex=350·nm and the emission wavelength λem=450 nm. Change in fluorescence intensity was quantified against a linear calibration plot of fluorescence intensity versus coumarin concentration (0 to 3.5 μmol dm^−3) in 10 mmol dm^−3 potassium phosphate buffer at pH 7.4 using the same instrument settings as for enzyme metabolism.

CYP1A1 = target: T2, CYP1A1 (Homo sapiens, UniProt P04798); assay: Fragmentation of benzofuran ether and carbamate linked coumarins by Supersomal CYP1A1 (coumarin anion release, kinetic fluorimetry); format: biochemical; parameters: purchased BD Gentest, Oxford, UK; details: 10 pmol enzyme, 10 μmol dm^−3 prodrug, NADPH, pH 7.4, 37° C., mean ± standard deviation of three measurements
T2 sequence (P04798 1-512): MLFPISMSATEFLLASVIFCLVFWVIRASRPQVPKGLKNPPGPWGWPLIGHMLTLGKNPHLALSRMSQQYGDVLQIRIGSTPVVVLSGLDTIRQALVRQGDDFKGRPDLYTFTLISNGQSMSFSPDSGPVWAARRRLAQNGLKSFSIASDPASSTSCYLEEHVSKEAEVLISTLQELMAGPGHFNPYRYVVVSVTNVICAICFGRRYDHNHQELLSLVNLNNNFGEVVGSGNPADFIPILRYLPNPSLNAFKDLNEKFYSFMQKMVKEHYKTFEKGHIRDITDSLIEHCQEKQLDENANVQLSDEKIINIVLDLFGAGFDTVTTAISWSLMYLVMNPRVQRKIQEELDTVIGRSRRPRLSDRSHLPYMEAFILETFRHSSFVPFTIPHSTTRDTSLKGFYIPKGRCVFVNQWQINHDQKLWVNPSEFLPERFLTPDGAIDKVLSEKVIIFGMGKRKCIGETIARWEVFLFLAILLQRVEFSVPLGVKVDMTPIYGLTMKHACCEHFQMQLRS
Protocol: as §1, §2, §3

CYP1B1 [1] = target: T3, CYP1B1 (Homo sapiens, UniProt Q16678); assay: Fragmentation of benzofuran ether and carbamate linked coumarins by Supersomal CYP1B1 (coumarin anion release, kinetic fluorimetry); format: biochemical; parameters: purchased BD Gentest, Oxford, UK; details: 10 pmol enzyme, 10 μmol dm^−3 prodrug, NADPH, pH 7.4, 37° C., mean ± standard deviation of three measurements
T3 sequence (Q16678 1-543): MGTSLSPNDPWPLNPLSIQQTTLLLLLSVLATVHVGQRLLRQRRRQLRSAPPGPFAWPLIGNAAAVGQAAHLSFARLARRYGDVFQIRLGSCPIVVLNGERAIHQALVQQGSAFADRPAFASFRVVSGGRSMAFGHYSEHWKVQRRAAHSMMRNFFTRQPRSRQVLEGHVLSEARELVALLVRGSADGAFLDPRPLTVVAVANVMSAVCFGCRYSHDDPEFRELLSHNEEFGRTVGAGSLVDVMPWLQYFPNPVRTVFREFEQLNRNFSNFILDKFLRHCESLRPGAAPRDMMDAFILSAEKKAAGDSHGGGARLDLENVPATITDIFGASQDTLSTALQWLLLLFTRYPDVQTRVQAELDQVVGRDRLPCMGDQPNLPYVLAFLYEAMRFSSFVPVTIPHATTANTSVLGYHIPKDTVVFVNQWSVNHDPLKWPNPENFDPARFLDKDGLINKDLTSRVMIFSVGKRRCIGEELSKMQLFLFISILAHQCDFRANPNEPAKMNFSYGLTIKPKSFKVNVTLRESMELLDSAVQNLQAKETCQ
Protocol: as §1, §2, §3

[2] = tested on: human liver microsomes (HLM); assay: Fragmentation of benzofuran ether and carbamate linked coumarins by pooled human liver microsomes (coumarin anion release); details: for Specific fragmentation activity, HLM: 60 μl HLM in 1.5 ml final reaction volume, NADPH, pH 7.4, mean ± standard deviation of three measurements
Protocol: as §1, §2, §3

CYP1B1 [3] = target: T3, CYP1B1; assay: CYP1B1 substrate prediction model (Gaussian Kernel weighted k-NN)
[4] = tested on: UTSCC-14 primary human tumour xenograft; assay: Anti-tumour activity in primary human tumour xenograft model (UTSCC-14, subcutaneous, nude mice); format: in vivo; details: for Tumour growth delay at 28 days: 2 cycles: daily for 5 days/2 days off
Protocol: Primary UTSCC-14 cell lines 3×10^6 were implanted subcutaneously in the flank of nude mice. Mice were randomized to 10 animals per group when the tumour volume was 100 to 150 mm^3. SU046-04 was given intraperitoneally at 12, 25 and 50 mg/Kg in PBS versus versus vehicle alone for 2 cycles: daily for 5 days/2 days off. Tumour volume was measured every 4 days using calipers. […] Tumour growth delay at 28 days was 31% at 12 mg/Kg, 56% at 25 mg/Kg, and 90% at 50 mg/Kg with 4/10 complete responses.

| SMILES | Specific fragmentation activity, CYP1A2 (CYP1A2) | Specific fragmentation activity, HLM [2] | % CYP1B1 substrate inhibition, accuracy (predicted versus actual) (CYP1B1 [3]) [%] | further results |
| --- | --- | --- | --- | --- |
| Cc1cc(=O)oc2cc(OCc3cc4ccccc4o3)ccc12 [SU010A, 7-(benzofuran-2-ylmethoxy)-4-methyl-2H-chromen-2-one] |  |  |  | Specific fragmentation activity, CYP1A2 (CYP1A2; listed as SU10A): fragmented; Specific fragmentation activity, CYP1A1 (CYP1A1; listed as SU10A): fragmented; Specific fragmentation activity, CYP1B1 (CYP1B1 [1]; listed as SU10A): fragmented; Specific fragmentation activity, HLM ([2]; listed as SU10A): fragmented |
| Cc1cc(=O)oc2cc(NC(=O)OCc3cc4ccccc4o3)ccc12 [SU018-03, benzofuran-2-ylmethyl 4-methyl-2-oxo-2H-chromen-7-ylcarbamate] | no release | no release |  | Specific fragmentation activity, CYP1B1 (CYP1B1 [1]): no release |
| COc1cc(OC)c2oc(COP(=O)(NCCCl)NCCCl)cc2c1 [SU025-04] |  |  | 96 |  |
| COc1cc(OC)c2oc(COP(=O)(NCCBr)NCCBr)cc2c1 [SU046-04] |  |  | 96 | Tumour growth delay at 28 days ([4]; 12 mg/Kg intraperitoneally): 31%; Tumour growth delay at 28 days ([4]; 25 mg/Kg intraperitoneally): 56%; Tumour growth delay at 28 days ([4]; 50 mg/Kg intraperitoneally): 90%; Complete responses ([4]; 50 mg/Kg intraperitoneally, 10 animals per group): 4/10; Adverse effects and body weight loss ([4]; after highest exposure 250 mg/Kg): No observed adverse effects or significant body weight loss; Tumour growth compared to the vehicle alone ([4]; all three treatment arms: 12, 25 and 50 mg/Kg intraperitoneally): significant inhibition of tumour growth |
| Cc1cc(=O)oc2cc(OCc3cc4cc(F)cc(F)c4o3)ccc12 [VG016-05, 7-((5,7-difluorobenzofuran-2-yl)methoxy)-4-methyl-2H-chromen-2-one] | no release | no release | 82 | Specific fragmentation activity, CYP1A1 (CYP1A1): no release; Specific fragmentation activity, CYP1B1 (CYP1B1 [1]): no fragmentation of the linker; also recorded: no release; Specific fragmentation activity, CYP1B1 (CYP1B1 [1]; listed as VG016-04): inhibits CYP1 isoenzyme and HLM-induced fragmentation |
| COc1ccc2oc(COC(=O)Nc3ccc4c(C)cc(=O)oc4c3)cc2c1 [VG032-05, (5-methoxybenzofuran-2-yl)methyl 4-methyl-2-oxo-2H-chromen-7-ylcarbamate] | no release |  |  |  |
| COc1cc(OC)c2oc(COc3ccc4c(C)cc(=O)oc4c3)cc2c1 [VG035-05, 7-((5,7-dimethoxybenzofuran-2-yl)methoxy)-4-methyl-2H-chromen-2-one] | no linker fragmentation; also recorded: no release | no linker fragmentation; also recorded: no release | 96 | Specific fragmentation activity, CYP1A1 (CYP1A1): no linker fragmentation; also recorded: no release |
| Cc1cc(=O)oc2cc(NC(=O)OCc3cc4cc(Br)ccc4o3)ccc12 [VG036-05, (5-bromobenzofuran-2-yl)methyl 4-methyl-2-oxo-2H-chromen-7-ylcarbamate] | no release | no release |  | Specific fragmentation activity, CYP1A1 (CYP1A1): no release; Specific fragmentation activity, CYP1B1 (CYP1B1 [1]): no release |
| COc1cc(OC)c2oc(COC(=O)Nc3ccc4c(C)cc(=O)oc4c3)cc2c1 [VG041-05, (5,7-dimethoxybenzofuran-2-yl)methyl 4-methyl-2-oxo-2H-chromen-7-ylcarbamate] | no release | no release |  | Specific fragmentation activity, CYP1B1 (CYP1B1 [1]): not CYP1A2 or CYP1B1; also recorded: no release |
| CCOc1ccc2nc3ccc(=O)cc-3oc2c1 [ethoxyresorufin, 7-ethoxyresorufin] |  |  | 95 |  |
| C=C[C@H]1C[N@@]2CC[C@H]1C[C@@H]2[C@@H](O)c1ccnc2ccc(OC)cc12 [quinidine] |  |  | 64 |  |
| Oc1ccc(C=Cc2cc(O)cc(O)c2)cc1 [resveratrol] |  |  | 95 |  |
| Nc1ccc(S(=O)(=O)Nc2ccnn2-c2ccccc2)cc1 [sulfaphenazole] |  |  | 68 |  |
| O=c1cc(-c2ccccc2)oc2c1ccc1ccccc12 [α-napthoflavone, α-naphthoflavone, reference compound] |  |  |  | Effect of α-naphthoflavone on HLM-mediated SU10A fragmentation (coumarin release) ([2]; HLM, inclusion of 10 μmol dm^−3 α-naphthoflavone): inhibits SU10A fragmentation |
| C[C@]12CC[C@@H]3c4ccc(O)cc4CC[C@H]3[C@@H]1CC[C@@H]2O [β-estradiol] |  |  | 95 |  |
